Values after ≈ are worked out from the molar mass of the structure shown. Values joined by “and” are separate entries in the source; they are usually repeats but may differ in a detail not shown here. Identical values can stand only once. Like-named read-outs stand apart in the source and are kept apart here. Numbered stars: 1 amine (or outer) side, 2 acyl side, 3 side chain; on linkers, the order of the positions; unused ones are H or OH. Bridge positions count the residues as written; N and C are the ends. Square brackets hold non-standard residues; d marks the D form. Peptide text beside a SMILES is read from it. * marks the point of attachment. Orn(4R-OH,5R-OH) = O=C([C@H](C[C@@H](O)[C@@H](O)N[*:3])N[*:1])[*:2]; hTyr(3S-OH,4S-OH) = N[C@H](C(=O)O)[C@H](O)[C@@H](O)c1ccc(O)cc1; Pro(3S-OH,4S-Me) = C[C@H]1CN[C@H](C(=O)O)[C@H]1O; X6 = O=C(C=Cc1ccc(N[*:1])cc1)[*:2]; Hyp = O=C(O)[C@@H]1C[C@@H](O)CN1; Lauroyl = CCCCCCCCCCCC(=O)*; 4Abz = Nc1ccc(C(=O)O)cc1; Aun = NCCCCCCCCCCC(=O)O; Ava = NCCCCC(=O)O
Key:
[1] = tested on: fungi; experiment: Antifungal activity of the cyclic nucleus; assay type: cell-based; details: in words; nucleus lacking the linoleoyl side chain
[2] = tested on: Saccharomyces pastorianus X-52; experiment: Agar plate disc diffusion test, zone of inhibition; assay type: cell-based; details: 1 mg/ml suspension in methanol, 7 mm disc, 24-48 hours at 25-37° C.; for zone of inhibition at 1000 µg/mL: Saccharomyces pastorianus, X52, 48 h
Description: (§3) ^(a) Compounds were tested as suspension in methanol.
(§4) were tested at a concentration of 1 mg/ml by a dipping 7mm disc into the
(§5) suspension and placing it on the agar surface. Incubation: 24-48 hours at

[3] = tested on: Trychophyton mentagrophytes #6; experiment: Agar plate disc diffusion test, MIC per disc; assay type: cell-based; details: 0.01M sodium borate, pH 7.5, 24 hours at 30° C.
Description: (§6) *Compounds were suspended in 0.01M sodium borate solution, pH 7.5.
(§7) compounds were tested at 20 μg/disc at top level and at twofold
(§8) dilutions until end points were reached.

[4] = tested on: Candida albicans A-26; experiment: Therapeutic activity against Candida albicans A-26 infection in mice; assay type: in vivo; details: A26, sc
Description: The results of in vivo tests to evaluate the effectiveness of the compound of Examples 61-81, 86 and 88 against an infection caused by Candida albicans A-26 in mice are given in Table 7, where activity is measured by the ED50 value (the dose in mg/kg. required to cure 50% of the test animals). Where an ED50 value was not obtained, activity is indicated by the lowest dose at which a significant anti-fungal effect is observed. In this test, groups of male albino mice (specific pathogen free), weighing 18 to 20 grams, are infected intravenously with Candida albicans A-26. The animals are X-irradiated 24 hours prior to infection at about 50 roentgens per minute for 8 minutes (400 total dose) to reduce immune responses to the infecting organism. At 0, 4, and 24 hours post infection each group of mice is given graded doses subcutaneously of the test compound as a suspension in 33% polyethylene glycol-water. The day of death for each animal is recorded.
*Dosage Schedule: 40, 20, 15, and 10 mg/kg. Dosages given 0, 4, and 24
hours post injection as suspension of test compound in 30% PEGH2 O.
Number of mice receiving test compounds at each dosage level: 6 mice per
group. Number of mice in control (untreated) group: 10 mice per group.
**As measured by increase in survival time of treated animals versus
control, calculated by method of Reed V. Mueuch, American J. Hygiene, 493

[5] = tested on: Candida albicans A-26; experiment: Agar plate disc diffusion test, zone of inhibition; assay type: cell-based; details: 7 mm disc; for Size of Zone of Inhibition: 1 mg/ml suspension in methanol, 24-48 hours at 25-37° C., no regrowth mark
Description: as §3, §4, §5

[6] = mouse, in vivo, 416 mg/kg, 240 min
Description: (§9) In this test, mice are gavaged with a dose of 416 mg/kg of the test compound suspended in 33% PEG 400-water. At time intervals, blood samples are taken from the orbital sinus and are assayed for antibiotic activity as follows: A 7 mm. disc containing 20 μl of whole blood is placed on agar seeded with Aspergillus montevidensis A35137. After 40 hours incubation at 30° C. zones of inhibition from the blood samples are compared to a standard obtained from the test compound, and the amount of compound in the blood sample is calculated.

[7] = tested on: Neurospora Crassa 846; experiment: Agar plate disc diffusion test, zone of inhibition; assay type: cell-based; details: 7 mm disc; for zone of inhibition at 1000 µg/mL: Neurospora crassa
Description: as §3, §4, §5

[8] = tested on: Trichophyton mentagrophytes; experiment: Agar plate disc diffusion test, zone of inhibition; assay type: cell-based
Description: as §3, §4, §5

[9] = tested on: Candida albicans A-26; experiment: Agar plate disc diffusion test, MIC per disc; assay type: cell-based; details: 0.01M sodium borate, pH 7.5, 24 hours at 30° C.
Description: as §6, §7, §8

[10] = tested on: Candida albicans A26; experiment: Agar dilution assay; assay type: cell-based
Description: (§1) Tables 4 and 5 give the results of the testing in vitro of the compounds of Examples 61-81 by agar-plate disc-diffusion methods. In Table 4 activity is measured by the size (diameter in mm.) of the observed zone of inhibition of the microorganism produced by the test compound. In Table 5, activity is measured by the minimal inhibitory concentration (MIC) of the substance (μg/disc) required to inhibit growth of the test organism. Table 6 gives the results of the testing in vitro of the N-(n-dodecanoyl)-p-aminobenzoyl derivative of A30912A nucleus (Formula III, R^1 is N-(dodecanoyl)-p-aminobenzoyl) against five strains of Candida albicans by the agar dilution method. In Table 6 activity is measured by the minimal inhibitory concentration (MIC) of the substance (μg/ml) required to inhibit the test organism.
(§2) In vitro activity of the N-(n-dodecanoyl)-p-aminobenzoyl (Example 64) and the N-(n-dodecanoyl)-5-amino-n-pentanoyl (Example 62) derivatives of A-30912A nucleus against 5 strains of Candida albicans by the agar dilution assay.

[11] = tested on: Candida albicans SBH 29; experiment: Agar dilution assay; assay type: cell-based
Description: as §1, §2

[12] = tested on: Candida albicans SBH 16; experiment: Agar dilution assay; assay type: cell-based
Description: as §1, §2

[13] = tested on: Candida albicans SBH 31; experiment: Agar dilution assay; assay type: cell-based
Description: as §1, §2

[14] = tested on: Candida albicans SBH 28; experiment: Agar dilution assay; assay type: cell-based
Description: as §1, §2

[15] = in vivo; details: mouse, po, 416 mg/kg
Description: as §9

[16] = Toxicity in dog on intravenous administration; assay type: in vivo; details: 100 mg/kg per day for five days
[17] = Blood levels after oral administration in mice; details: mouse, in vivo, po, 416 mg/kg
Description: as §9

[18] = Saccharomyces pastorianus X-52, read-out: Size of Zone of Inhibition
[19] = subcutaneous at 0, 4 and 24 hours post infection, dose to cure 50% of test animals, by increase in survival time, read-out: ED50
[20] = subcutaneous at 0, 4 and 24 hours post infection, lowest dose with significant anti-fungal effect, read-out: Lowest Active Dose
[21] = CRASSA846, Neurospora Crassa 846, 1 mg/ml, * measurable zone of inhibition with regrowth of organism around disc, read-out: Size of Zone of Inhibition (*)
[22] = 1 mg/ml, 7 mm disc, * measurable zone of inhibition with regrowth of organism around disc, read-out: Size of Zone of Inhibition (*)
[23] = 1 mg/ml, 7 mm disc, * measurable zone of inhibition with regrowth of organism around disc

Row | MIC [3] [μg/disc] | Blood Levels [6] [ng/mL] | MIC [9] | concentration at 4 h [15] [ng/mL] | SMILES | zone of inhibition at 1000 µg/mL [2, 18] [mm] | ED50 [4, 19] [mg/kg] | minimal effective dose [4, 20] [mg/kg] | Size of Zone of Inhibition [5] | zone of inhibition at 1000 µg/mL [7, 21] [mm] | zone of inhibition at 1000 µg/mL [8, 22] [mm] | Size of Zone of Inhibition ([2]; Saccharomyces pastorianus X-52) [mm] | Size of Zone of Inhibition (*) [8, 23] [mm] | also measured
1 |  |  |  |  | C[C@@H](O)[C@@H]1NC(=O)[C@H]([C@H](O)[C@@H](O)c2ccc(O)cc2)NC(=O)[C@@H]2C[C@@H](O)CN2C(=O)[C@H]([C@@H](C)O)NC(=O)[C@@H](N)C[C@@H](O)[C@@H](O)NC(=O)[C@@H]2[C@@H](O)[C@@H](C)CN2C1=O [A-30912A nucleus] (H-[Orn(4R-OH,5R-OH)]T[Hyp][hTyr(3S-OH,4S-OH)]T[Pro(3S-OH,4S-Me)]; lactam 1-C) |  |  |  |  |  |  |  |  | antifungal activity [1]: substantially devoid of antifungal activity
2 | 0.078 | 0 | 1.25 μg/disc |  | CCCCCCCCCCCC(=O)NCCCCC(=O)N[C@H]1C[C@@H](O)[C@@H](O)NC(=O)[C@@H]2[C@@H](O)[C@@H](C)CN2C(=O)[C@H]([C@@H](C)O)NC(=O)[C@H]([C@H](O)[C@@H](O)c2ccc(O)cc2)NC(=O)[C@@H]2C[C@@H](O)CN2C(=O)[C@H]([C@@H](C)O)NC1=O [Example 62, N-(n-dodecanoyl)-5-amino-n-pentanoyl derivative of A-30912A nucleus] ({Lauroyl-Ava}-[Orn(4R-OH,5R-OH)]T[Hyp][hTyr(3S-OH,4S-OH)]T[Pro(3S-OH,4S-Me)]; lactam 1-C) | 15 | 22 | 20 | 25 mm | 27 | 60 |  |  | MIC ([10]; agar dilution, strain A26, read-out: MIC): 1.25 µg/mL (≈ 1.16 µM); MIC ([11]; SBH29, agar dilution, strain SBH 29, read-out: MIC): 2.5 µg/mL (≈ 2.32 µM); MIC ([12]; SBH16, agar dilution, strain SBH 16, read-out: MIC): 2.5 µg/mL (≈ 2.32 µM); MIC ([13]; SBH31, agar dilution, strain SBH 31, read-out: MIC): 2.5 µg/mL (≈ 2.32 µM); MIC ([14]; SBH28, agar dilution, strain SBH 28, read-out: MIC): 2.5 µg/mL (≈ 2.32 µM)
3 | 0.156 | 0 | 2.5 μg/disc and 1.25 μg/disc | 400 | CCCCCCCCCCCC(=O)NCCCCCCCCCCC(=O)N[C@H]1C[C@@H](O)[C@@H](O)NC(=O)[C@@H]2[C@@H](O)[C@@H](C)CN2C(=O)[C@H]([C@@H](C)O)NC(=O)[C@H]([C@H](O)[C@@H](O)c2ccc(O)cc2)NC(=O)[C@@H]2C[C@@H](O)CN2C(=O)[C@H]([C@@H](C)O)NC1=O [Example 63] ({Lauroyl-Aun}-[Orn(4R-OH,5R-OH)]T[Hyp][hTyr(3S-OH,4S-OH)]T[Pro(3S-OH,4S-Me)]; lactam 1-C) | 15 | > 40 | > 40 | 24 mm and 25 mm | 28 | 55 | 18 | 63 | Size of Zone of Inhibition ([7]; Neurospora Crassa 846, 1 mg/ml suspension in methanol, 24-48 hours at 25-37° C., no regrowth mark): 28 mm; zone of inhibition at 1000 µg/mL ([7]; CRASSA846, 48 h, Neurospora Crassa 846, 1 mg/ml suspension in methanol, 24-48 hours at 25-37° C., no regrowth mark, read-out: Size of Zone of Inhibition): 35 mm; zone of inhibition at 1000 µg/mL ([8]; 48 h, 1 mg/ml suspension in methanol, 7 mm disc, 24-48 hours at 25-37° C., no regrowth mark, read-out: Size of Zone of Inhibition): 56 mm
4 | < 0.039 |  | 1.25 μg/disc | 1310 | CCCCCCCCCCCC(=O)Nc1ccc(C=CC(=O)N[C@H]2C[C@@H](O)[C@@H](O)NC(=O)[C@@H]3[C@@H](O)[C@@H](C)CN3C(=O)[C@H]([C@@H](C)O)NC(=O)[C@H]([C@H](O)[C@@H](O)c3ccc(O)cc3)NC(=O)[C@@H]3C[C@@H](O)CN3C(=O)[C@H]([C@@H](C)O)NC2=O)cc1 [Example 73] (Lauroyl-[X6][Orn(4R-OH,5R-OH)]T[Hyp][hTyr(3S-OH,4S-OH)]T[Pro(3S-OH,4S-Me)]; lactam 2-C) | 17 | 24 | 20 |  | 29 | 24 |  |  | Size of Zone of Inhibition (*) ([5]; 1 mg/ml, * measurable zone of inhibition with regrowth of organism around disc): 60 mm

Row | SMILES | MIC [3] [μg/disc] | Blood Levels [6] [ng/mL] | MIC [9] | concentration at 4 h [15] [ng/mL] | zone of inhibition at 1000 µg/mL [2, 18] [mm] | ED50 [4, 19] [mg/kg] | minimal effective dose [4, 20] [mg/kg] | Size of Zone of Inhibition [5] | zone of inhibition at 1000 µg/mL [7, 21] [mm] | zone of inhibition at 1000 µg/mL [8, 22] [mm] | Size of Zone of Inhibition ([2]; Saccharomyces pastorianus X-52) [mm] | Size of Zone of Inhibition (*) [8, 23] [mm] | also measured
5 | CCCCCCCCCCCC(=O)Nc1ccc(C(=O)N[C@H]2C[C@@H](O)[C@@H](O)NC(=O)[C@@H]3[C@@H](O)[C@@H](C)CN3C(=O)[C@H]([C@@H](C)O)NC(=O)[C@H]([C@H](O)[C@@H](O)c3ccc(O)cc3)NC(=O)[C@@H]3C[C@@H](O)CN3C(=O)[C@H]([C@@H](C)O)NC2=O)cc1 [Example 64, N-(n-dodecanoyl)-p-aminobenzoyl derivative of A-30912A nucleus] ({Lauroyl-4Abz}-[Orn(4R-OH,5R-OH)]T[Hyp][hTyr(3S-OH,4S-OH)]T[Pro(3S-OH,4S-Me)]; lactam 1-C) |  |  | 0.625 μg/disc and 1.25 μg/disc |  |  |  |  | 23 mm and 19 mm |  |  | 17 | 56 | SGPT levels [16]: increased SGPT levels were observed; outward signs of toxicity [16]: no outward signs of toxicity; zone of inhibition at 1000 µg/mL ([2]; read-out: Size of Zone of Inhibition, Saccharomyces pastorianus X-52): 21 mm; ED50 [4]: 15 mg/kg; minimal effective dose ([4]; read-out: Lowest Active Dose, subcutaneous at 0, 4 and 24 hours post infection, lowest dose with significant anti-fungal effect): 10 mg/kg; concentration at 4 h [17]: 830 ng/mL; Size of Zone of Inhibition (*) ([7]; Neurospora Crassa 846, 1 mg/ml, * measurable zone of inhibition with regrowth of organism around disc): 35 mm; zone of inhibition at 1000 µg/mL ([7]; CRASSA846, read-out: Size of Zone of Inhibition (*), Neurospora Crassa 846, 1 mg/ml, * measurable zone of inhibition with regrowth of organism around disc): 33 mm; zone of inhibition at 1000 µg/mL ([8]; read-out: Size of Zone of Inhibition (*), Trichophyton mentagrophytes, 1 mg/ml, 7 mm disc, * measurable zone of inhibition with regrowth of organism around disc): 55 mm; MIC ([10]; A26): 0.312 µg/mL (≈ 0.284 µM); MIC ([11]; SBH29): 0.625 µg/mL (≈ 0.569 µM); MIC ([12]; SBH16): 0.625 µg/mL (≈ 0.569 µM); MIC ([13]; SBH31): 0.625 µg/mL (≈ 0.569 µM); MIC ([14]; SBH28): 0.625 µg/mL (≈ 0.569 µM)
